Consider one molecule from patent publication US9663486B2, “Selectively substituted quinoline compounds” (EISAI R&D MANAGEMENT CO., LTD., priority 2013, dated 2017).

One experiment addresses T1, human TLR8 (Homo sapiens, UniProt Q9NR97).
T1 construct: host or cells: HEK-293 stably expressing hTLR8, then transfected with pNiFty2(NF-kappaB)-luciferase
T1 sequence (Q9NR97 27-1041): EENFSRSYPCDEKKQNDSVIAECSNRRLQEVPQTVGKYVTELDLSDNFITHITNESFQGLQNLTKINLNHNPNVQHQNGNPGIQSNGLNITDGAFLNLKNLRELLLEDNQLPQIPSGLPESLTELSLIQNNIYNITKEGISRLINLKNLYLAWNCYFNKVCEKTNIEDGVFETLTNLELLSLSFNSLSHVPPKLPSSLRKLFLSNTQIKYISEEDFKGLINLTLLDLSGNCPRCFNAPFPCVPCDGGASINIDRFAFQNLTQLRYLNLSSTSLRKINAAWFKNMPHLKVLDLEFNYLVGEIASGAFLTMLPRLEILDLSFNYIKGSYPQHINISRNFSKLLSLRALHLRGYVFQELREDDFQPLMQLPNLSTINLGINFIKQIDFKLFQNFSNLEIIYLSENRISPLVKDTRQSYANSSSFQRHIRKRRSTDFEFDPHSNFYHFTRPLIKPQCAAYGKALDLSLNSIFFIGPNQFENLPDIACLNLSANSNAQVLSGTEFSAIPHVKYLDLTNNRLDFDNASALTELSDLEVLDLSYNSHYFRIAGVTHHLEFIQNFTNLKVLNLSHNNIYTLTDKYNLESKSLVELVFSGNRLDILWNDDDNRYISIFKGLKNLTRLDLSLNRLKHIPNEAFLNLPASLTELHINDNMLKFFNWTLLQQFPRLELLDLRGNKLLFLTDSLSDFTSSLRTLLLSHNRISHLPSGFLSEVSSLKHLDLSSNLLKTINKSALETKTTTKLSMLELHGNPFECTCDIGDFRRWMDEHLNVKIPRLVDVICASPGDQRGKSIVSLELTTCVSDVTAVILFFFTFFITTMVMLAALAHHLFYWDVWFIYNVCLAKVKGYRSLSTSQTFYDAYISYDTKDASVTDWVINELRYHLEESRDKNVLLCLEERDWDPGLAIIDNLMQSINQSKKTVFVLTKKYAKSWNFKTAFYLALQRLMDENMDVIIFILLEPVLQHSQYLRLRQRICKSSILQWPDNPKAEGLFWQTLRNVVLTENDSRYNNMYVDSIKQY
As to the kind of experiment: HEK-293 assay format, human TLR8 (CL097). In kind it is cell-based. The settings on record: read-out: HEK/hTLR8 IC50. The text has this:
HEK-293 cells (ATCC) were engineered to stably express a NF-kappaB transcription factor inducible E-selectin (ELAM-1) luciferase reporter derived from the plasmid pGL3 (Promega) containing base pairs −2241 bp to −254 bp from the promoter of the human E-selectin gene (Accession No. NM_000450). These cells were then subsequently engineered to stably and individually express human TLR4, TLR7 or TLR9 full-length ORF cDNAs. Human TLR4 cDNA (Accession No. NM_138554) was cloned into pcDNA 3.0 expression vector (Invitrogen). TLR4 transfected cells were also engineered to express human MD-2 co-receptor [MD-2 cDNA (Accession No. NM_015364) was cloned into the pEF-BOS vector] and were supplemented with 10 nM soluble CD14 (R&D Systems) in the media to optimize LPS responsiveness. Human TLR9 cDNA (Accession No. NM_017442) was cloned into the pBluescript II KS vector (Agilent). Human TLR7 cDNA (Accession No. NM_016562) was obtained from OriGene. HEK-293 cells stably expressing human TLR8 (Accession No. NM_138636) or mouse TLR7 (Accession No. NM_133211) were purchased from InvivoGen and were then stably transfected with pNiFty2(NF-kappaB)-luciferase reporter plasmid (InvivoGen). Each cell type was plated in Dulbecco's modified Eagle's medium (DMEM) containing 10% fetal bovine serum (FBS) at a density of 2.22×10^5 cells/ml into a 384-well plate and incubated for 2 days at 37° C., 5% CO2. […]

A further experiment has as its system Human TLR7/8. As to the kind of experiment: Human PBMC cell-based assay, TLR7/8 (RNA-Ig), cytokine ELISA. The settings on record: PBMC assay data summary; ligand and analyte not given; read-out: Human PBMCs IC50. As to the method: Human peripheral blood mononuclear cells (PBMC) were isolated from freshly-drawn heparinized (10 USP units/ml, Hospira, Lakeforest, Ill.) healthy donor whole blood by density gradient (Histopaque® 1077, Sigma, Inc., St. Louis, Mo.). Briefly, 25 ml blood was diluted with 15 ml PBS (without Ca^2+, Mg^2+) in a 50 ml conical tube, and 12 ml Histopaque was underlaid using a spinal needle. Tubes were centrifuged for 45 minutes at 1200 rpm (350×g), and PBMC were collected from the buffy coat. Cells were then washed twice in PBS, and red blood cells were lysed by suspension in 5 ml ammonium chloride solution (1× Red Blood Cell Lysis Buffer, eBioscience) for 5 minutes at room temperature. After a final wash in PBS, PBMC were resuspended at a final concentration of 2×10^6/ml in RPMI-1640 media with L-glutamine (Invitrogen) and supplemented with 25 mM HEPES (Mediatech, Inc, Manassas Va.), 10% fetal bovine serum (HyClone, Logan, Utah), and Penicillin-Streptomycin-Glutamine (Mediatech) and plated at 100 ul/well (2×10^5 cells/well) in tissue culture treated 96-well plates (Falcon).
Antagonist compounds solubilized and serial diluted in 100% DMSO were added in triplicate to cells to yield a final concentration of 0.1% DMSO (v/v). Hydroxychloroquine (Acros Organics) solubilized and serial diluted in PBS was added in triplicate to cells. PBMC were incubated with antagonist compounds or HCQ for 30 minutes at 37° C., 5% CO2 before adding various TLR agonist reagents in 100 ul complete media per well as follows (final concentrations indicated): R848 (Resiquimod; GLSynthesis, Worcester, Mass.) at 1 uM for TLR7 and TLR8, Pam3CSK4 (InvivoGen) at 50 ng/ml for TLR1/2, LPS (Sigma) at 10 ng/ml for TLR4, and CpG-2216 (InvivoGen) at 5 ug/ml for TLR9. […] The resulting “RNA-Ig” stimulus was incubated at room temperature for 15-30 minutes before adding to cells. PBMC were incubated with the various TLR agonists for 20 hours at 37° C., 5% CO2. Cell culture supernatants were collected, and levels of various human cytokines were assessed as indicated by standard ELISA procedure according to the manufacturer's recommended protocol (BD Biosciences, Inc., San Diego, Calif.).

The structures appear in SMILES notation.

Regarding `N#Cc1ccc(N2CCC[C@@H](N)C2)c2cccnc12` [ER-878921], the IC50 amounted to 74 nM at human TLR8 and 90 nM in the experiment on Human TLR7/8.
